Source: paper PMC7144358, “Determination of KD025 (SLx-2119), a Selective ROCK2 Inhibitor, in Rat Plasma by High-Performance Liquid Chromatography-Tandem Mass Spectrometry and Its Pharmacokinetic Application” (Molecules, 2020)
Like-named read-outs stand apart in the source and are kept apart here.

Legend:
[1] = Stability of stock solutions; format: physicochemical; conditions: KD025 200 ng/mL, IS 250 ng/mL; for Stock solution stability, concentration as % of fresh samples: room temperature for 4 h; for Stock solution stability: −20 °C for 4 weeks
Experimental: (§1) The stability of stock solutions of KD025 and IS was assessed by comparing the peak response of freshly prepared methanol/acetonitrile solution with that of the solution stored at room temperature for 4 hours or at −20 °C for 4 weeks of KD025 (200 ng/mL) and IS (250 ng/mL). The stability of QC samples in rat plasma at low, middle, high, and ultra-high concentrations was investigated in terms of short- and long-term stability, post-preparative stability, and freeze-thaw stability. Short-term stability was assessed by holding QC samples at the laboratory condition (room temperature) for 4 h, while QC samples were stored at −20 °C for 4 weeks to evaluate long-term stability. The post-preparative stability of processed samples stored in an autosampler (4 °C) was evaluated after 24 hours. Freeze-thaw stability was tested over three repeated cycles, in which QC samples were frozen at −20 °C and then thawed at room temperature. Peak area ratio changes of < 15% between stored and freshly prepared samples were considered as the criteria for the stability of samples [41].

[2] = design: method as in PMID 28389592; conditions: 38 patients with psoriasis, oral administration, phase 2; cited from earlier work
[3] = human, in vivo, po; cited from earlier work
[4] = Stability of KD025 in rat plasma under storage/handling conditions; format: in vitro ADME; conditions: for Stability (%), auto-sampler stability (24 h at 4 °C): processed rat plasma sample; for Stability (%), auto-sampler stability (24 h at 4 °C) / Stability (%), freeze-thaw stability (3 cycles) / Stability (%), long-term stability (4 weeks at −20 °C) / Stability (%), short-term stability (4 h at room temperature): n = 3
Experimental: as §1

ROCK2 = system: ROCK2; design: method as in PMID 26486225, PMID 21242007; conditions: cited from earlier work
[5] = Pharmacokinetic study after single oral and IV administration of KD025 to rats; format: in vivo, Sprague–Dawley rats; conditions: rat
Experimental: The feasibility of the developed LC/MS–MS method was examined by performing pharmacokinetic studies of KD025 in rats. Animal experiments were performed in accordance with the guide for the care and use of laboratory animals issued by the National Institutes of Health, as described previously. All experimental protocols were approved by the Animal Care and Use Committee of Gachon University (No. GIACUC-R2018014, approved on June 20th, 2018). Sprague–Dawley rats (8–9 weeks, 250–300 g, Nara Biotech, South Korea) were provided free access to food and water and maintained under 12 h light/dark cycles to adjust to the laboratory environment for a week before commencing the study. Rats were anesthetized by intramuscular injections (20 mg/kg) of Zoletil® (Vibrac, TX, USA) and cannulated by surgery to the femoral artery with polyethylene tubing (Clay Adams, NJ, USA) filled with heparinized saline (20 IU/mL) for blood sampling. After the rats had recovered from surgery, KD025 in a vehicle mixture (DMSO:Cremophor EL:PEG400:DDW = 5:10:40:50) was administered to rats at a dose of 5 mg/kg and 2 mg/kg for oral and IV administration, respectively. Blood samples (220 μL) were collected at 0 (blank), 1 (IV only), 5, 15, 30, 60, 120, 180, 240, 360, 480 and 1440 (oral only) min after KD025 administration and equal volumes of saline were injected for compensation of fluid loss. Plasma was separated from other components of blood by centrifugation at 14,000 rpm for 15 min at 4 °C and then was stored at −20 °C until analysis.
For sample preparation, 100 μL of IS in acetonitrile solution (250 ng/mL) was added to 50 μL of plasma samples, followed by vortex-mixing in 1 min for deproteinization. Samples were then centrifuged at 14,000 rpm for 15 min at 4 °C, and 100 μL aliquots of the supernatant were collected for analysis, as described in Section 3.2. The plasma peak concentration (Cmax) and time to reach Cmax (Tmax) were directly determined from each individual plasma concentration–time profile. Other pharmacokinetic parameters were calculated using WinNonlin® 3.1 software (Pharsight, Cary, NC, USA) by a non-compartmental method, as described previously. Results are presented as means ± standard deviations.

[6] = design: method as in doi:10.1016/j.bbmt.2018.12.100, doi:10.1182/blood-2019-125986, doi:10.1097/01.HS9.0000564392.13730.a3; conditions: 54 patients, phase 2a; cited from earlier work
[7] = rat plasma, UHQC 8000 ng/mL diluted 10 times to 800 ng/mL
[8] = Sprague-Dawley, plasma, IV 2 mg/kg, n = 5
[9] = Sprague-Dawley, plasma, PO 5 mg/kg, n = 5

CC1=C(C(=O)Nc2cc3cn[nH]c3cc2F)C(c2ccc(C(F)(F)F)cc2)CC(=O)N1 (stereo not drawn) [IS]
Stock solution stability, concentration as % of fresh samples [1]: 100.0%
Stock solution stability [1]: 91.1%

CC(C)NC(=O)COc1cccc(-c2nc(Nc3ccc4[nH]ncc4c3)c3ccccc3n2)c1 [KD025, 2-(3-(4-((1H-Indazol-5-yl)amino)quinazolin-2-yl)phenoxy)-N-isopropylacetamide]
Clinical effect in psoriasis [2]: reduced psoriasis area, normalized skin pathology, and down-regulated serum IL-17 and IL-23 cytokines
Tolerability [2]: well tolerated, with no serious side effects
Tolerability [3]: well tolerated and produced no significant adverse events, including cardiovascular side effects
Stability (%), auto-sampler stability (24 h at 4 °C) ([4]; 1 ng/mL): 112.1 ± 2.0%
Stability (%), auto-sampler stability (24 h at 4 °C) ([4]; 3 ng/mL): 100.2 ± 0.2%
Stability (%), auto-sampler stability (24 h at 4 °C) ([4]; 40 ng/mL): 102.0 ± 1.3%
Stability (%), auto-sampler stability (24 h at 4 °C) ([4]; 400 ng/mL): 98.1 ± 2.1%
Stability (%), auto-sampler stability (24 h at 4 °C) ([4]; 800 ng/mL): 101.1 ± 0.8%
Stability (%), auto-sampler stability (24 h at 4 °C) ([4]; UHQC 8000 ng/mL diluted 10 times to 800 ng/mL): 103.3 ± 3.2%
Short-term stability, peak area ratio vs freshly prepared samples ([4]; rat plasma at room temperature (4 h), range over QC and UHQC concentrations): 92.8–100.5%
Long-term stability, peak area ratio vs freshly prepared samples ([4]; rat plasma at −20 °C (4 weeks), range over QC and UHQC concentrations): 95.8–109.9%
Stability (%), freeze-thaw stability (3 cycles) ([4]; rat plasma, 1 ng/mL): 114.1 ± 1.5%
Stability (%), long-term stability (4 weeks at −20 °C) ([4]; rat plasma, 1 ng/mL): 95.8 ± 3.7%
Stability (%), short-term stability (4 h at room temperature) ([4]; rat plasma, 1 ng/mL): 92.8 ± 5.0%
Stability (%), freeze-thaw stability (3 cycles) ([4]; rat plasma, 3 ng/mL): 108.7 ± 3.4%
Stability (%), long-term stability (4 weeks at −20 °C) ([4]; rat plasma, 3 ng/mL): 104.9 ± 6.0%
Stability (%), short-term stability (4 h at room temperature) ([4]; rat plasma, 3 ng/mL): 93.0 ± 1.3%
Stability (%), freeze-thaw stability (3 cycles) ([4]; rat plasma, 40 ng/mL): 110.1 ± 6.5%
Stability (%), long-term stability (4 weeks at −20 °C) ([4]; rat plasma, 40 ng/mL): 106.3 ± 3.0%
Stability (%), short-term stability (4 h at room temperature) ([4]; rat plasma, 40 ng/mL): 94.0 ± 1.6%
Stability (%), freeze-thaw stability (3 cycles) ([4]; rat plasma, 400 ng/mL): 103.3 ± 3.3%
Stability (%), long-term stability (4 weeks at −20 °C) ([4]; rat plasma, 400 ng/mL): 109.9 ± 2.2%
Stability (%), short-term stability (4 h at room temperature) ([4]; rat plasma, 400 ng/mL): 99.0 ± 0.6%
Stability (%), freeze-thaw stability (3 cycles) ([4]; rat plasma, 800 ng/mL): 109.3 ± 5.3%
Stability (%), long-term stability (4 weeks at −20 °C) ([4]; rat plasma, 800 ng/mL): 106.4 ± 1.1%
Stability (%), short-term stability (4 h at room temperature) ([4]; rat plasma, 800 ng/mL): 93.6 ± 1.8%
Stability (%), freeze-thaw stability (3 cycles) [4, 7]: 114.3 ± 2.2%
Stability (%), long-term stability (4 weeks at −20 °C) [4, 7]: 98.6 ± 0.5%
Stability (%), short-term stability (4 h at room temperature) [4, 7]: 100.5 ± 2.5%
Peak area ratio vs fresh samples after three freeze-thaw cycles ([4]; rat plasma, range over five QC and UHQC concentrations): 103.3–114.3%
Post-preparative stability, peak area ratio ([4]; samples stored in autosampler at 4 °C (24 h), range over QC and UHQC concentrations): 98.1–112.1%
Selectivity for ROCK2 than ROCK1 (ROCK2): 100 fold
AUC(0-t) [5, 8]: 872 ng·h/mL
MRT [5, 8]: 0.773 h
clearance [5, 8]: 38.9 ± 6.2 mL/min/kg
half-life [5, 8]: 1.47 ± 0.332 h
Cmax ([5]; Sprague-Dawley, plasma, IV 2 mg/kg, n = 5, C0 estimated by noncompartmental analysis, read-out: Cmax (C0)): 4420 ± 1210 ng/mL
Vd ([5]; Sprague-Dawley, plasma, IV 2 mg/kg, n = 5, read-out: Vss): 1.78 ± 0.287 L/kg
AUC(0-t) [5, 9]: 763 ng·h/mL
MRT [5, 9]: 7.91 h
half-life [5, 9]: 5.89 ± 2.82 h
Tmax ([5]; Sprague-Dawley, plasma, PO 5 mg/kg, n = 5, mean ± SD): 2.2 h
Cmax ([5]; Sprague-Dawley, plasma, PO 5 mg/kg, n = 5, mean ± SD, read-out: Cmax): 128 ± 74.7 ng/mL
AUC(0-inf) ([5]; Sprague-Dawley, plasma, iv, 2 mg/kg, IV 2 mg/kg, n = 5): 812 ng·h/mL
bioavailability ([5]; Sprague-Dawley, plasma, oral, PO 5 mg/kg vs IV 2 mg/kg, AUC∞PO/AUC∞IV × 100): ~37%
AUC(0-inf) ([5]; Sprague-Dawley, plasma, po, 5 mg/kg, PO 5 mg/kg, n = 5): 877 ng·h/mL
AUClast to AUC∞ ratio ([5]; IV 2 mg/kg): 99.2%
AUC∞ /Dose ([5]; IV 2 mg/kg, n = 5): 26.3 ± 5.0 μg∙min/mL/[mg/kg]
AUC∞ ([5]; IV 2 mg/kg, n = 5, 2 mg/kg): 52.7 ± 10.0 µg·min/mL
AUC∞ /Dose ([5]; PO 5 mg/kg, n = 5): 9.7 ± 2.4 μg∙min/mL/[mg/kg]
AUC∞ ([5]; PO 5 mg/kg, n = 5, 5 mg/kg): 48.7 ± 11.8 µg·min/mL
AUClast to AUC∞ ratio ([5]; oral 5 mg/kg): 94.0%
Clinical response in chronic graft-versus-host disease [6]: clinically meaningful responses with little toxicity and reductions in corticosteroid doses
Stock solution stability, concentration as % of fresh samples [1]: 89.6%
Stock solution stability [1]: 95.4%
